In patent publication US10000450B2, “N,N-substituted 3-aminopyrrolidine compounds useful as monoamines reuptake inhibitors” (OTSUKA PHARMACEUTICAL CO., LTD., priority 2005, dated 2018):
Structures can show the parent of a compound that is named as a salt.

Key:
Format in all cases: biochemical
[1] = target: T1, Serotonin (5-HT) uptake into rat brain synaptosome (frontal cortex) (Rattus norvegicus, UniProt P31652); assay: Inhibitory activity on serotonin (5-HT) uptake into rat brain synaptosome; details: tritium-labeled 5-HT 8 nM uptake, 10 min at 37° C., read-out: 50% inhibittory concentration
T1 construct: used as crude synaptosome fractions; from tissue; host or cells: rat (male Wistar) frontal cortex, crude synaptosome fraction
T1 sequence (P31652 whole entry): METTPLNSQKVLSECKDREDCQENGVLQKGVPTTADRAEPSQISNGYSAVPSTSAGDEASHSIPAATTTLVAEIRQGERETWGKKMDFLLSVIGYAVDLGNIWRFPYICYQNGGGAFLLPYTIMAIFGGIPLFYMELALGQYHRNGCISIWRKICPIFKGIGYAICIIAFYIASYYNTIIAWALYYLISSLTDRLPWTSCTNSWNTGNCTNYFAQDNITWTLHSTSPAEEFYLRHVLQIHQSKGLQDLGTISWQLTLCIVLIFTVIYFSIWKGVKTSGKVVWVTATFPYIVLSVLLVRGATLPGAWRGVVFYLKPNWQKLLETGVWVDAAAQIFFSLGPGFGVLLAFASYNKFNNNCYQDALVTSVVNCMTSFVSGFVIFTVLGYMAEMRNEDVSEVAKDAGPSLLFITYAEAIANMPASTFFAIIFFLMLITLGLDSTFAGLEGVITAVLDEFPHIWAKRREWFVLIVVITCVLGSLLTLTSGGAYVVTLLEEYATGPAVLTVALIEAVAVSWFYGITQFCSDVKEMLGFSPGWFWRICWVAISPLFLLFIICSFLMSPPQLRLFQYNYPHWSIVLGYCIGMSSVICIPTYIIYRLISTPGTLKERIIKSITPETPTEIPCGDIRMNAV
Procedure: Pharmacological Test 1 Evaluation of Inhibitory Activity of Test Compound on Serotonin (5-HT) Uptake into Rat Brain Synaptosome
(§1) Male Wistar rats were decapitated and the brains were removed and the frontal cortices were dissected. The separated frontal cortices were homogenized in 20 volumes as weight of 0.32 M sucrose solution by a Potter-type homogenizer. The homogenate was centrifuged at 1000 g at 4° C. for 10 minutes, and the supernatant was then centrifuged at 20000 g at 4° C. for 20 minutes. The pellet was resuspended in incubation buffer (20 mM HEPES buffer (pH 7.4)) containing 10 mM glucose, 145 mM sodium chloride, 4.5 mM potassium chloride, 1.2 mM magnesium chloride, and 1.5 mM calcium chloride) and used as crude synaptosome fractions.
(§2) The uptake reaction mixture was suspended in a final volume of 200 μl containing pargyline (final concentration of 10 μM) and sodium ascorbate (final concentration of 0.2 mg/ml) in each well of 96-well-round-bottom-plate.
(§3) Solvent, unlabeled 5-HT, and serial diluted test compounds were added in each well, and synaptosome fraction of 1/10 volume of the final volume were added. After a 10 min preincubation at 37° C., the uptake was initiated by the addition of tritium-labeled 5-HT solution (final concentration of 8 nM) at 37° C. The uptake was stopped after 10 minutes by filtration under vacuum through a 96-well glass fiber filter plate. After washing the filter with cold physiological saline and drying up, Microscint-O (Perkin-Elmer) was added, and remained radioactivity on the filter was measured.
(§4) The total uptake activity with only solvent was determined as 100%, and the nonspecific uptake activity with unlabeled 5-HT (final concentration of 10 μM) was determined as 0%. The 50% inhibitory concentrations were calculated based on the concentrations of the test compounds and their inhibitory activities.

[2] = target: T2, Dopamine (DA) uptake into rat brain synaptosome (striatum) (Rattus norvegicus, UniProt P23977); assay: Inhibitory activity on dopamine (DA) uptake into rat brain synaptosome; details: tritium labeled DA 2 nM uptake, 10 min at 37° C., read-out: 50% inhibitory concentration
T2 construct: used as crude synaptosome fraction; from tissue; host or cells: rat (male Wistar) striatum, crude synaptosome fraction
T2 sequence (P23977 whole entry): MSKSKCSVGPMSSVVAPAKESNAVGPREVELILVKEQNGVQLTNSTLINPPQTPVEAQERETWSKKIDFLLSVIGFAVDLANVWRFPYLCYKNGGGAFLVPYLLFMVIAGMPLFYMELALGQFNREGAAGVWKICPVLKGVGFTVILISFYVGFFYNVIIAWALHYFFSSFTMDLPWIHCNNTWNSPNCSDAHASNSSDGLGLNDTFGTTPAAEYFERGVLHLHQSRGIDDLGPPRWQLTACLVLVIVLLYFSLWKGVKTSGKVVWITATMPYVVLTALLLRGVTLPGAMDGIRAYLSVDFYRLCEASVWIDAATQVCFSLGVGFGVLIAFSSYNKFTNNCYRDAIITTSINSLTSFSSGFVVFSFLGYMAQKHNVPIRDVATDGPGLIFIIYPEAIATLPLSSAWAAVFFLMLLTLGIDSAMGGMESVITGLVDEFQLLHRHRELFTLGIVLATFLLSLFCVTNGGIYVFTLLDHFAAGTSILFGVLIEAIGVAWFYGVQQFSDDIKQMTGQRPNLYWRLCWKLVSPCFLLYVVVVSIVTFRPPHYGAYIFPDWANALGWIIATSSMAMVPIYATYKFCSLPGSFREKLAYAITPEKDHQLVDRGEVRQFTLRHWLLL
Procedure: Pharmacological Test 3 Evaluation of Inhibitory Activity of Test Compound on Dopamine (DA) into Rat Brain Synaptosome
as §1, with “striata” for “frontal cortices”, “fraction.” for “fractions.”
as §2
as §3, with “DA,” for “5-HT,”, “10-min” for “a 10 min”, “tritium labeled DA” for “tritium-labeled 5-HT”, “2” for “8”, “Microscint-0” for “Microscint-O”, “added” for “added,”
as §4, with “The” for “The total”, “DA” for “5-HT”

[3] = target: T3, Norepinephrine (NE) uptake into rat brain synaptosome (hippocampus) (Rattus norvegicus, UniProt Q63380); assay: Inhibitory activity on norepinephrine (NE) uptake into rat brain synaptosome; details: tritium-labeled NE 12 nM uptake, 10 min at 37° C., read-out: 50% inhibitory concentration
T3 construct: used as crude synaptosome fraction; from tissue; host or cells: rat (male Wistar) hippocampus, crude synaptosome fraction
T3 sequence (Q63380 1-617): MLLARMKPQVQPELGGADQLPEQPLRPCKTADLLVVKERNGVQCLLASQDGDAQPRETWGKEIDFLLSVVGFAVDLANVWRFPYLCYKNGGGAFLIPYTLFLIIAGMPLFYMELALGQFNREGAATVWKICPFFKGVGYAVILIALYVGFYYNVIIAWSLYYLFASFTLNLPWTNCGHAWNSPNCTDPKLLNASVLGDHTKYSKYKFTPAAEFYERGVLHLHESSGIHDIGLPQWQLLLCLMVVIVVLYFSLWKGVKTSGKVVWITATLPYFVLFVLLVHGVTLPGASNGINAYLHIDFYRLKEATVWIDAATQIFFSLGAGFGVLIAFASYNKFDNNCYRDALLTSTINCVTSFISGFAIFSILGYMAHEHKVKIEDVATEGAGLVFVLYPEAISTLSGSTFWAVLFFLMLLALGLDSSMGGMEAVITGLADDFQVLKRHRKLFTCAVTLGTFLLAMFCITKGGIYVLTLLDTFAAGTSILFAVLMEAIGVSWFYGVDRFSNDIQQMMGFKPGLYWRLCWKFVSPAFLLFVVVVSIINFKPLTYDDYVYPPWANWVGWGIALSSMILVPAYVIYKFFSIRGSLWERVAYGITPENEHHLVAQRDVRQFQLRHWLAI
Procedure: Pharmacological Test 2 Evaluation of Inhibitory Activity of Test Compound on Norepinephrine (NE) Uptake into Rat Brain Synaptosome
as §1, with “hippocampi” for “frontal cortices”, “fraction.” for “fractions.”
The uptake reaction mixture was suspended in final volume of 200 μl containing pargyline (final concentration of 10 μM) and sodium ascorbate (final concentration of 0.2 mg/ml) in each well of 96-well-round-bottom-plate.
Solvent, unlabeled NE, and serial diluted test compounds were added to each well, and synaptosome fraction of 1/10 volume of the final volume were added. After 10 minutes preincubation at 37° C., the uptake was initiated by the addition of tritium-labeled NE solution (final concentration of 12 nM) at 37° C. The uptake was stopped after 10 minutes by filtration under vacuum through a 96-well glass fiber filter plate. After washing the filter with cold physiological saline and drying up, Microscint-0 (Perkin-Elmer) was added, and remained radioactivity on the filter was measured.
as §4, with “NE” for “5-HT”

Row | IC50 [1] | IC50 [2] | IC50 [3] | Compound
1 | 0.6 nM | 5.8 nM | 0.3 nM | Fc1ccc(N(c2ccc3ncsc3c2)[C@H]2CCNC2)cc1Cl [Example 989]
2 | 2.5 nM | – | 0.9 nM | [O-][n+]1cccc(N(c2ccc(F)c(Cl)c2)[C@H]2CCNC2)c1 [Example 896]
3 | – | 26 nM | 0.8 nM | Cn1ncc2ccc(N(c3ccc(F)c(Cl)c3)[C@H]3CCNC3)cc21 [Example 990]
4 | – | 32.9 nM | – | Clc1ccc(N(c2ccncc2)[C@H]2CCNC2)cc1Cl [Example 273]
5 | – | – | 0.8 nM | Fc1ccc(N(c2ccccc2)[C@H]2CCNC2)cc1 [Example 20]
6 | – | 24 nM | – | c1cncc(N(c2ccc3sccc3c2)[C@H]2CCNC2)c1 [Example 294]
7 | – | 9.3 nM | – | Cc1cc(N(c2ccccc2)[C@H]2CCNC2)ccc1F [Example 46]
8 | – | – | 2.2 nM | Cc1ccc(N(c2ccccc2)[C@H]2CCNC2)cc1 [Example 22]
9 | 1.5 nM | – | 0.6 nM | c1ccc(N(c2ccc3cnsc3c2)[C@H]2CCNC2)cc1 [Example 900]
10 | 2.8 nM | 9.6 nM | 0.7 nM | Fc1ccc(N(c2ccc(Cl)c(Cl)c2)[C@H]2CCNC2)nc1 [Example 961]
11 | 0.7 nM | – | – | Fc1ccc(N(c2ccc3ccsc3n2)[C@H]2CCNC2)cc1 [Example 899]
12 | – | 48.6 nM | – | c1cc2cc(N(c3ccc4sccc4c3)[C@H]3CCNC3)ccc2s1 [Example 299]
13 | 0.8 nM | 6.5 nM | 0.8 nM | Fc1ccc(N(c2ccc3ncccc3c2)[C@H]2CCNC2)cc1Cl [Example 913]
14 | – | 30.6 nM | 0.1 nM | c1cncc(N(c2ccc3ccsc3c2)[C@H]2CCNC2)c1 [Example 289]
15 | – | 32.9 nM | 0.1 nM | c1cc(N(c2ccc3sccc3c2)[C@H]2CCNC2)cs1 [Example 1002]
16 | – | 8.2 nM | – | N#Cc1ccc(N(c2ccc(Cl)c(Cl)c2)[C@H]2CCNC2)cn1 [Example 270]
17 | – | – | 0.1 nM | Clc1ccc(N(c2cccnc2)[C@H]2CCNC2)cc1Cl [Example 256]
18 | 0.8 nM | 6.5 nM | – | N#Cc1ccc(N(c2ccc(F)c(Cl)c2)[C@H]2CCNC2)cn1 [Example 268]
19 | – | 4.3 nM | – | CCN1CCN(c2ccc(N(c3ccc(F)c(Cl)c3)[C@H]3CCNC3)nc2)CC1 [Example 201]
20 | – | 29.8 nM | 0.5 nM | Fc1cncc(N(c2ccc3sccc3c2)[C@H]2CCNC2)c1 [Example 951]
21 | – | – | 0.3 nM | Cc1ccc(N(c2cccc(F)c2)[C@H]2CCNC2)cc1Cl [Example 98]
22 | 1.6 nM | – | – | Fc1ccc(N(CCCCOc2ccccn2)[C@H]2CCNC2)cc1Cl [Example 5, (3-chloro-4-fluorophenyl)-[4-(pyridin-2-yloxy)butyl]-(S)-pyrrolidin-3-ylamine difumarate]
23 | 0.8 nM | 32.5 nM | 0.4 nM | Fc1ccc(N(c2ccc3ccsc3c2)[C@H]2CCNC2)cc1 [Example 114]
24 | – | 30 nM | – | N#Cc1ccc(-c2cncc(N(c3ccc(F)c(Cl)c3)[C@H]3CCNC3)c2)cc1 [Example 272]
25 | – | – | 0.2 nM | Clc1ccc(N(c2cccnc2)[C@H]2CCNC2)cc1Cl [Example 242]
26 | 0.7 nM | – | – | O=C1CCc2ccc(N(c3ccc(F)cc3)[C@H]3CCNC3)cc2N1 [Example 917]

Row | IC50 [1] | IC50 [2] | IC50 [3] | Compound
27 | – | 9.6 nM | – | c1cc2ccc(N(c3ccc4ccsc4c3)[C@H]3CCNC3)cc2s1 [Example 300]
28 | – | – | 0.5 nM | Fc1ccc(N(c2ccc(Cl)nc2)[C@H]2CCNC2)cc1Cl [Example 244]
29 | 0.7 nM | – | – | Fc1ccc(N(c2ccc3cnsc3c2)[C@H]2CCNC2)cc1 [Example 901]
30 | – | 8.9 nM | 0.1 nM | c1ccc(N(c2ccc3sccc3c2)[C@H]2CCNC2)cc1 [Example 116]
31 | 1.2 nM | – | – | Fc1ccc(N(c2cnc3ccccc3c2)[C@H]2CCNC2)cc1Cl [Example 149]
32 | 1 nM | 30.2 nM | – | Cn1c(=O)ccc2cc(N(c3ccc(F)c(Cl)c3)[C@H]3CCNC3)ccc21 [Example 912]
33 | 0.8 nM | – | – | Cc1cc(N(c2cnc3ccccc3c2)[C@H]2CCNC2)ccc1F [Example 151]
34 | – | – | 0.4 nM | c1ccc2cc(N(c3ccsc3)[C@H]3CCNC3)ccc2c1 [Example 1000]
35 | 0.6 nM | – | 0.2 nM | Fc1ccc(N(c2nccs2)[C@H]2CCNC2)cc1Cl [Example 131]
36 | 1.8 nM | – | – | c1ccc(N(c2ccc3sccc3n2)[C@H]2CCNC2)cc1 [Example 934]
37 | – | 8.7 nM | 0.4 nM | Fc1ccc(N(c2ccccc2)[C@H]2CCNC2)cc1Cl [Example 44]
38 | – | 3.8 nM | – | Fc1ccc(N(c2ccc(N3CCNCC3)cn2)[C@H]2CCNC2)cc1Cl [Example 200]
39 | – | – | 0.6 nM | Clc1ccc(N(c2ccccc2)C2CCNC2)cc1Cl (stereo not drawn) [Example 1, (3,4-dichlorophenyl)phenylpyrrolidin-3-ylamine dihydrochloride]
40 | 3 nM | 38 nM | 0.5 nM | Cc1cc(N(c2cncc(F)c2)[C@H]2CCNC2)ccc1F [Example 895]
41 | 2.2 nM | 34.7 nM | 0.3 nM | Fc1ccc(N(c2ccsc2)[C@H]2CCNC2)cc1Cl [Example 278]
42 | 0.8 nM | 9.2 nM | 0.2 nM | Fc1ccc(N(c2ccccn2)[C@H]2CCNC2)cc1Cl [Example 154]
43 | 1 nM | 47.1 nM | 0.8 nM | Clc1ccc(N(c2cnccn2)[C@H]2CCNC2)cc1Cl [Example 963]
44 | 0.7 nM | – | – | CSc1ccc(N(c2ccccc2)[C@H]2CCNC2)cc1 [Example 19]
45 | 0.9 nM | 25.4 nM | 0.1 nM | CC(C)(O)CN(c1ccc(F)c(Cl)c1)[C@H]1CCNC1 [Example 967]
46 | 0.6 nM | 9 nM | – | N#Cc1ccc(N(c2ccc(F)c(Cl)c2)[C@H]2CCNC2)cc1 [Example 73]
47 | – | – | 0.1 nM | Clc1ccc(N(c2ccccn2)[C@H]2CCNC2)cc1Cl [Example 188]
48 | 1.2 nM | – | 0.7 nM | Cc1cc2ccc(N(c3ccccc3)[C@H]3CCNC3)cc2s1 [Example 903]
49 | – | 16.4 nM | 0.1 nM | c1cc(N(c2ccc3ccsc3c2)[C@H]2CCNC2)cs1 [Example 1001]
50 | 1.4 nM | – | 0.8 nM | Fc1ccc(N(C2CCCC2)[C@H]2CCNC2)cc1Cl [Example 306]
51 | – | – | 0.2 nM | COc1cccc(N(c2ccc(F)c(Cl)c2)[C@H]2CCNC2)n1 [Example 223]
